From patent publication US20230313140A1, “METHOD FOR PREPARING T CELLS FOR ADOPTIVE T CELL THERAPY” (St. Jude Children's Research Hospital, Inc., priority 2022, published 2023)

Assays:
[1] = test system: p-eIF4GI; experiment: Imaging of polarization of p-eIF4GI in activated, undivided CD8+ T cells; conditions: Dynarrestin 25 μM, Ciliobrevin D 50 μM
Method: (§1) Murine CD8^+ T Lymphocytes. For CD8^+ T cell stimulation, splenocytes obtained from wild-type animals were enriched for antigen presenting cells (APCs) using CD11c MicroBeads (Miltenyi Biotec) and pulsed with 5 nM of [sequence] peptide (SEQ ID NO:1; AnaSpec Inc.) for 1 hour at 37° C. CD8^+ T cells were isolated from lymph nodes using the Dynabeads Untouched Mouse CD8 Cells Kit (Invitrogen) and overlain onto the peptide-pulsed APCs. Alternatively, CD8^+ T cells were stimulated on plate-bound anti-CD3ε (1 μg/ml, Bio X Cell), anti-CD28 (1 μg/ml, Bio X Cell), and recombinant human ICAM (0.5 μg/ml) produced in insect cells (Huppa et al. (2010) Nature 463:963-967); or by incubation with PMA (10 ng/ml, MedChemExpress) and Ionomycin (1 μM, MedChemExpress). Whenever assessment of cell division was required, CD8^+ T cells were labeled with a fluorescent dye sold under the tradename CELLTRACE® Violet (CTV) Cell Proliferation Kit (Invitrogen) at 5 μM per 1×10^7 cells for 10 minutes at 37° C. […]
(§2) The distribution of proteins in undivided cells was analyzed using Imaris 9.5 software (Oxford Instruments).

[2] = test system: ribosomal protein S6; experiment: General TORC1 activity measured by phosphorylation of ribosomal protein S6; type: cell-based, mouse; conditions: activated, undivided cells treated with dynein inhibitors
From the text: Murine CD8^+ T Lymphocytes. […] Immunofluorescence Staining and Imaging.

[3] = test system: TORC1; experiment: Imaging of polarization of TORC1 activity (phospho-mTOR) in activated, undivided CD8+ T cells; conditions: Dynarrestin 25 μM, Ciliobrevin D 50 μM
Method: as §1, §2

[4] = test system: cytosolic c-Myc; experiment: Imaging of polarization of cytosolic c-Myc in activated, undivided CD8+ T cells; conditions: Dynarrestin 25 μM, Ciliobrevin D 50 μM
Method: as §1, §2

[5] = test system: Sirt1; experiment: Immunofluorescence imaging of Sirt1 distribution between dividing sister cells; conditions: silvestrol 200 nM or Hippuristanol 500 nM, last hour of activation
Method: (§3) Murine CD8^+ T Lymphocytes. For CD8^+ T cell stimulation, splenocytes obtained from wild-type animals were enriched for antigen presenting cells (APCs) using CD11c MicroBeads (Miltenyi Biotec) and pulsed with 5 nM of [sequence] peptide (SEQ ID NO:1; AnaSpec Inc.) for 1 hour at 37° C. CD8^+ T cells were isolated from lymph nodes using the Dynabeads Untouched Mouse CD8 Cells Kit (Invitrogen) and overlain onto the peptide-pulsed APCs. […] Whenever assessment of cell division was required, CD8^+ T cells were labeled with a fluorescent dye sold under the tradename CELLTRACE® Violet (CTV) Cell Proliferation Kit (Invitrogen) at 5 μM per 1×10^7 cells for 10 minutes at 37° C. For in vivo stimulation, CTV-labeled CD8^+ T cells were transferred by tail vein injection of wild-type recipients. Twenty-four hours after transfer, recipients were immunized by subcutaneous injection of 50 μg of [sequence] peptide (SEQ ID NO:1) into the neck region. Donor cells were obtained from axillary and brachial lymph nodes 8 hours after immunization. CD8^+ T cells were cultured in RPMI 1640 (Gibco) supplemented with 10% (v/v) heat-inactivated fetal bovine serum (FBS), lx MEM non-essential amino acids (Gibco), 1 mM Sodium pyruvate (Gibco), 2 mM L-glutamine (Gibco), 55 μM 2-mercaptoethanol (Gibco), 50 U/ml penicillin and 50 μg/ml streptomycin (Corning) at 37° C. in 5% CO2. […]

[6] = test system: c-Myc association with RPL26 and S6; experiment: STORM analysis of c-Myc translating polysomes; type: cell-based, mouse; conditions: brief treatment, 91 μM
Method: Murine CD8^+ T Lymphocytes. […] Stochastic Optical Reconstruction Microscopy (STORM). […] PFA was added to the culture at a final concentration of 4% (v/v), the cell suspension was transferred into […], and fixation continued for 10 minutes at RT. During all sample preparation, cells were pelleted for 3 minutes at 2000 rpm between each buffer. […] Reactive groups were quenched in 20 mM glycine, and non-specific antibody binding was blocked in TBS+2% BSA. […] Cells were washed with TBS and incubated with the following secondary antibodies for 1 hour at RT: CF488-labeled donkey anti-rat (1:1000, Biotium), CF568-labeled donkey anti-Goat (1:1000, Biotium), and AF647-labeled donkey anti-rabbit (1:1000, Jackson ImmunoResearch). Following two washes with TBS, cells were post-fixed in 1% (v/v) PFA for 5 minutes at RT, pelleted and resuspended in 20 μl cell culture matrix sold under […] drop of the cell suspension was placed into a cryomold, overlaid with Tissue Freezing Medium (Fisher Scientific Company) and snap frozen on dry ice. […] cryosections were placed on poly-L-lysine coated #1.5 18-mm coverslips (Electron Microscopy Sciences) and affixed to 35-mm dishes (Mattek) using epoxy resin. […] At least 25 cells from two independent experiments were analyzed. […]

[7] = test system: first-division c-Myc^high CD8+ T cells; experiment: Adoptive transfer and in vivo influenza infection and challenge, donor cell frequency; set-up: species or system mouse; conditions: c-Myc^high cells treated 2 hours with 200 nM after sorting, transferred into recipients; A/X-31-OVA day 0, challenge day 30; spleen
[8] = test system: c-Myc bound to chromatin at c-Myc binding sites; experiment: CUT&RUN ChIP-seq of c-Myc bound to chromatin in first-division CD8+ T cells; type: cell-based, mouse; conditions: brief treatment of activated CD8+ T cells; 200 nM, 2 hours; chromatin immunoprecipitation
Method: CHIP-Sequencing. First-division CD8^+ T cells were sorted into medium with or without 200 nM silvestrol and cultured for additional 2 hours. CUT&RUN ChIP-seq experiments were performed as previously described (Meers et al. (2019) Elife 8) with slight modifications. […] Libraries were quantified using Qubit and size distribution was determined by Agilent 4200 TapeStation analysis before 15 million paired-end sequencing was performed.
Analysis for CHIP-seq Data. Paired-end sequencing reads were trimmed with Trim Galore (version 0.5.0) with default parameters. Reads were aligned to the reference mouse mm10 assembly using Bowtie 2 (version 2.3.5.1) (Langmead & Salzberg (2012) Nat. Methods 9:357-359) with settings—end-to-end—very-sensitive—nomixed—no-discordant-q—phred33-I 10-X 700. The resulting alignments, recorded in BAM file, were sorted, indexed, and marked for duplicates with Picard MarkDuplicate function (version 2.19.0, Broad Institute). […] C-Myc occupancy was normalized by scaling to 1 million mapped reads using BEDTools (version 2.27.1) (Quinlan & Hall (2010) Bioinformatics 26:841-842) and bedGraphToBigWig (version 377) (Kent et al. (2010) Bioinformatics 26:2204-2207) and visualized as heatmaps using deepTools plotHeatmap (version 3.2.1) (Ramirez et al. (2016) Nucl. Acids Res. 44:W160-165).

[9] = test system: GFP-c-Myc; type: cell-based, mouse; conditions: sorted first-division cells treated for 2 hours, 200 nM
[10] = test system: c-Myc; experiment: Immunofluorescence imaging of c-Myc distribution in first-division sister cells; conditions: treatment immediately prior to the first division (last hour of activation); silvestrol 200 nM, Hippuristanol 500 nM
Method: as §3

Structure (SMILES) | polarization of p-eIF4GI [1] | TORC1 activity in general, phosphorylation of ribosomal protein S6 [2] | polarization of TORC1 [3] | polarization of cytosolic c-Myc [4] | Sirt1 protein distribution between dividing sister cells [5] | other results
N#CC(=C(O)c1ccc(Cl)cc1Cl)c1nc2cc(Cl)ccc2c(=O)[nH]1 [Ciliobrevin D] | abrogated the polarization | remained unaffected | abrogated the polarization | abrogated the polarization |  | 
CCOC(=O)c1sc(Nc2ccc(F)cc2F)nc1-c1ccc(N(CC)CC)cc1 [Dynarrestin] | abrogated the polarization | remained unaffected | abrogated the polarization | abrogated the polarization |  | 
C[C@H]1C[C@@]2(O[C@H]3C[C@H]4[C@@H]5CC[C@H]6C[C@H](O)CC[C@]6(C)[C@H]5[C@@H](O)C[C@]4(C)[C@H]3[C@@]2(C)O)OC1(C)C [Hippuristanol] |  |  |  |  | unaffected | 
COc1ccc(C[C@H](N)C(=O)N[C@H]2[C@@H](O)[C@H](n3cnc4c(N(C)C)ncnc43)O[C@@H]2CO)cc1 [puromycin] |  |  |  |  |  | association of c-Myc with RPL26 and S6 [6]: significantly reduced
COC(=O)[C@H]1[C@@H](O)[C@@]2(O)c3c(OC)cc(O[C@@H]4O[C@@H]([C@H](O)CO)CO[C@H]4OC)cc3O[C@@]2(c2ccc(OC)cc2)[C@@H]1c1ccccc1 [silvestrol] |  |  |  |  | unaffected | frequency of donor cells on day 9 after A/PR/8-OVA challenge (FIG. 2) [7]: detected at numbers comparable to those found for sorted c-Myc^low cells; c-Myc bound to chromatin at c-Myc binding sites [8]: greatly reduced; c-Myc levels in c-Myc^high cells (GFP-c-Myc MFI, FIG. 1) [9]: reduce c-Myc levels in c-Myc^high cells to those observed in c-Myc^low cells; c-Myc asymmetry in first-division sister cells [10]: rapid equilibration of c-Myc levels
